Where two headings read alike, the source gives them in different places.
How the values were obtained:
[1] = system: corneal endothelial cells; details: for Avg. % KI67 (+) Cells: 24 hr pre-incubation in mitogen-containing medium, n = 2-3 donor corneas
Protocol: (§1) Twenty-one human corneas were obtained from donors of about 52-75 years of age (Avg.=65.1 years old). Whole corneas were usually cut in quarters to increase sample size. In some cases, whole corneas were used as controls. Corneal pieces were placed endothelial-side up in individual wells of a 24-well tissue culture plate (Falcon, Lincoln Park, N.J.). Pieces were incubated for about 24 hrs in Medium-199 containing 10% fetal bovine serum (FBS), 10 ng/ml epidermal growth factor (EGF) (Upstate Biotechnologies, Lake Placid, N.Y.), 20 ng/ml fibroblast growth factor(FGF) (pituitary-derived, Biomedical Research Technologies, Stoughton, Mass.), and […] gentamicin to stabilize the endothelium prior to study. Ethylenediamine tetraacetic acid (e.g., di-sodium EDTA.2 H2O) was prepared in Hank's Balanced Salt Solution (HBSS) without calcium chloride, magnesium chloride, or magnesium sulfate: Life Technologies, Grand Island, N.Y.), adjusted to pH7.4, and added to the culture medium at a final concentration of 0.02, 0.2, or 2.0 mg/ml. Corneas were treated with EDTA for 10, 30, or 60 min and then returned to culture medium for up to 96 hrs. Negative controls for EDTA treatment included exposing corneal pieces to all manipulations and incubation conditions, including 1 hour in HBSS, but without EDTA. All corneas were maintained at 37° C. in a 5% carbon dioxide, humidified atmosphere until removal for analysis of cell cycle progression.
Immunolocalization was carried out using the same antibodies and protocols as described previously for ZO-1 (10) and Ki67 (19). Corneal pieces stained for Ki67 were mounted in medium containing propidium iodide (PI: Vector Laboratories, Inc., Burlingame, Calif.) to visualize all nuclei. In some cases, samples were double-stained for both Ki67 and ZO-1. Slides were viewed using a Leica TCS 4D confocal microscope equipped with a Leitz DMRBE laser and SCANware 4.2 software (Leica Lasertechnik, Heidelberg, Germany). Images were collected from the central region of the corneal pieces away from the cut edges using a 16×, 40×, or 100×-oil immersion lens. Laser power and gain controls were adjusted to achieve an optimal range of output signal intensity for each channel. Confocal images were collected and micrographs were printed using Photoshop software v4.0 (Adobe Systems, Inc., San Jose, Calif.). For some micrographs, the printing contrast was adjusted to provide a clearer image.
Fluorescence confocal immunocytochemistry for Ki67 was used to evaluate corneal endothelial cells for their ability to enter and complete the cell cycle (i.e., cell proliferation or mitosis). All nuclei were stained with PI. Positive Ki67 staining patterns indicated the presence of actively cycling cells and also acted as markers for specific phases of the cell cycle. Completion of the cell cycle was determined by observation of mitotic figures stained with Ki67. Three representative confocal micrographs were taken per corneal quarter using a 40×-objective lens. An NIH Image v1.62 software program was used to count total PI-stained nuclei, total Ki67-positive cells, and cells in the G1-phase, S/G2-phase, or M-phase of the cell cycle. Cells were counted in five […] areas of each micrograph (=15 areas counted per corneal piece). Counts were averaged and the percentage of actively cycling cells and of cells in each phase of the cell cycle was calculated. Each study was conducted using corneas from 2-3 different donors. Statistical comparisons were made by a paired Student's t-test using a StatView v4.11 software program (Abacus Concepts, Inc., Berkeley, Calif.). Results reported in Table 1 were expressed as percentage of Ki67-positive cells +/−SD.

[2] = system: corneal endothelial cell-cell contacts
Protocol: as §1, with “All corneas were maintained at 37° C. in a 5% carbon dioxide, humidified atmosphere until removal for analysis of cell cycle progression.” left out

O=C(O)CN(CCN(CC(=O)O)CC(=O)O)CC(=O)O [EDTA, ethylenediaminetetraacetic acid]
time to complete the cell cycle after EDTA treatment (mitotic figures) ([1]; 24 hours pre-incubation, 0.2 mg/ml EDTA for 60 min, single donor): approximately 48 hrs
Avg. % KI67 (+) Cells ([1]; EDTA 0.2 mg/ml, 30 minutes): 8.67%
Avg. % KI67 (+) Cells ([1]; EDTA 0.2 mg/ml, 60 minutes): 11.99%
percent of the cells stimulated to proliferate ([1]; EDTA 2.0 mg/ml for 60 minutes, after preincubation in culture medium): 16-18%
Avg. % KI67 (+) Cells ([1]; EDTA 2.0 mg/ml, 30 minutes): 14.28%
Avg. % KI67 (+) Cells ([1]; EDTA 2.0 mg/ml, 60 minutes): 17.18%
percent of the cell population that entered the cell cycle ([1]; intact endothelial monolayer treated with EDTA and mitogens): around 17%
cell cycle progression (Ki67 stained nuclei and mitotic figures) ([1]; pre-incubation in mitogen-containing medium, then EDTA, 48 hour post-incubation): did promote cell cycle progression
proliferation (Ki67 staining) with EDTA alone ([1]; up to 2.0 mg/ml EDTA, no prior or simultaneous growth factor, post-incubated 48 hours in mitogen-containing medium): did not promote proliferation
effect on cell-cell contacts (ZO-1 staining) ([2]; 2.0 mg/ml EDTA for 60 minutes): caused cells to become rounded with only thin cytoplasmic strands connecting adjacent cells
percent of treated cells with interrupted cell-contacts ([2]; corneal endothelial cells exposed to EDTA): at least 15%
